Consider three compounds from patent US10761088B2, “Method for identifying histone tail proteolysis” (University of Southern California, priority 2016, dated 2020).

Data set [1] concerns H3NT proteolysis in OCP-induced cells. The data set can be described thus: H3NT cleavage in OCP-induced cells (Western blot of chromatin with H3CT antibody). The data set is classed as cell-based. As to conditions: RANKL-induced primary mouse OCP cells; shRNA transduction or 10 nM MMP-9-INI or 1.6 μM C646 for 3 days prior to differentiation; versus control shRNA or DMSO. A general note: In western blotting, separated proteins are transferred to a membrane and probed.

In data set [2] the test system is Nfatc1, Lif and Xpr1 expression. Description: RT-qPCR of osteoclastogenic genes Nfatc1, Lif and Xpr1 in 3-day OCP cells. The data set is classed as cell-based, mouse. The settings on record: 3-day OCP-induced cells, with RANKL (FIG. 7B, 14). From the text: FIGS. 7A-7D. […] Distribution of H3NT-cleaved genes dependent on MMP-9 for activation (light) or repression (black) in 3-day OCP-induced cells (right). […] Enrichments were plotted relative to non-induced control shRNA OCP cells (first column) (y-axis). Star indicates H3NT cleavage.
FIG. 14. […] RT-qPCR was used to quantitatively measure fold expression changes (y-axis) of the osteoclastogenic genes Nfatc1, Lif and Xpr1 relative to non-induced control after normalization to β-actin expression.
To broadly examine the association between H3NT cleavage and gene expression, the RNA-Seq data was analyzed for the 1,233 H3NT-cleaved genes identified in control and MMP-9 depleted 3-day OCP-induced cells. […] To further investigate the MMP-9-dependent activation of these genes during osteoclastogenesis, RT-qPCR was performed in OCP cells transduced with a control or MMP-9-specific shRNA, or treated with DMSO control or a selective MMP-9 inhibitor, and cultured with or without RANKL for 3 days. […]
qPCR was performed using PerfeCta® SYBR Green FastMix (Quanta BIOSCIENCES) and an iCycler IQ5 (Bio-Rad). […] Specificity of amplification was determined by melting curve analysis and all samples were run in triplicate with results averaged.
(In general: Quantitative PCR measures a nucleic acid by following its amplification.)

The target of data set [3] is T1, H3NT protease activity (MMP-9) of purified fractions #3-5 from 3-day OCP-induced cells (Mus musculus, UniProt P41245).
T1 construct: both the pro- and active-forms of MMP-9 were detected in the nuclear compartment of 1-day OCP-induced cells; endogenous in cells; host or cells: primary mouse (C57BL/6) bone-marrow-derived OCP cells induced with RANKL; nuclear extracts / lysates
Description: In vitro H3NT cleavage assay of purified nuclear fractions #3-5 with protease inhibitors (rH3 substrate, Western blot with H3CT antibody). The data set is classed as biochemical. As to conditions: fractions incubated with protease inhibitors, Western blot with H3CT antibody (FIG. 1D, 1E). From the text:
(§1) To identify the protease responsible for H3NT cleavage observed in preosteoclasts, nuclear extracts from 3-day OCP-induced cells were fractionated by a series of chromatography steps (FIG. 1C). An in vitro H3NT cleavage assay was developed using a recombinant H3 (rH3) substrate and Western blot analysis with the H3CT antibody to track and isolate nuclear fractions containing H3NT protease activity. […] These fractions were combined and fractionated on a Q-sepharose column where, again, H3NT protease activity was largely restricted to two sequential fractions, BR100 and BR200. The fractions were combined for glycerol gradient sedimentation resulting in the final purification of fractions (#3-5) containing H3NT protease activity. […]
(§2) His-tagged proteins were generated in Rosetta 2 (DE3) pLysS E. coli (Novagen) and purified as previously described (Kim et al. 2008). […] Peptides were incubated with rMMP-9 at seven different concentrations (0, 25, 50, 100, 150, 200, and 250 µM) in cleavage buffer, the reactions stopped by adding 20 mM o-phenanthroline (Sigma) and peptide hydrolysis was measured by adding 5 mM fluorescamine followed by detection at λex 365 nm and λem 450 nm using a Plate Chameleon spectrofluorometer (Hidex). Kinetic parameters were determined by Michaelis-Menten analysis. […]

For another data set, the system named is recombinant H3 (rH3). The data set can be described thus: In vitro H3NT cleavage assay using recombinant proteases. The data set is classed as biochemical. As to conditions: recombinant MMP-9, USP14, USP39 and DIM1 tested (FIG. 1G).
From the text: as §1, §2

“Also recorded” adds a separate entry of the source.

T1 sequence (P41245 108-730): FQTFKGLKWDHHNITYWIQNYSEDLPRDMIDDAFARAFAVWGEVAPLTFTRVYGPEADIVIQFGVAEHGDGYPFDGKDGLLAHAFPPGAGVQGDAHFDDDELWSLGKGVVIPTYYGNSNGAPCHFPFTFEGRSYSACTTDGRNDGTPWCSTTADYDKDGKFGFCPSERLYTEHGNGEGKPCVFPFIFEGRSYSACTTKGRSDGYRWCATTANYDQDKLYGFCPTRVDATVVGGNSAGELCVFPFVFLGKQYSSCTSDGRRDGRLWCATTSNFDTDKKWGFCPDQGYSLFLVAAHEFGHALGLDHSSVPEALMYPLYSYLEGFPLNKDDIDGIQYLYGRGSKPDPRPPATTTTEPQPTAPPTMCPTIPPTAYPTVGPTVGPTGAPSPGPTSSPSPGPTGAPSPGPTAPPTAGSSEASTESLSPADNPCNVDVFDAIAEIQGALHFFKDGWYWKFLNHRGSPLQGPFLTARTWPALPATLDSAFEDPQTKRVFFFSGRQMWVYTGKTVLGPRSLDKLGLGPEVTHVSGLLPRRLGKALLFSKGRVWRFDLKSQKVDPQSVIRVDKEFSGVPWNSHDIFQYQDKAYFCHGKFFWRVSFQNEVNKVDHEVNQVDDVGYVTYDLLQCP

On to `CC1=NN(c2ccc(C(=O)O)cc2)C(=O)/C1=C\c1ccc(-c2cc(C)c(C)cc2[N+](=O)[O-])o1` [selective CBP/p300 inhibitor, C646], for which, in data set [1], the “H3NT proteolysis / cleavage in OCP-induced cells” value was “sustained impairment of H3NT proteolysis”.

On to `CCN(CC)Cc1cc(C)c(N(Cc2ccccc2)S(=O)(=O)c2ccc(OC)cc2)c(C(=O)NO)c1` [selective MMP-9 inhibitor], for which the “Nfatc1, Lif and Xpr1 activation (fold expression, normalized to β-actin)” value in data set [2] was “significantly impaired Nfatc1, Lif and Xpr1 activation”. The “H3NT proteolysis / cleavage in OCP-induced cells” value in data set [1] is reported as “continuous impairment of H3NT cleavage; also recorded: Ablation of H3NT cleavage”. The “H3NT protease activity of purified fractions #3-5” value in data set [3] is reported as “abolished H3NT proteolysis”.

“rMMP-9: His-tagged recombinant MMP-9 (aa1115-730 as printed) purified from E. coli inclusion bodies and refolded”: the “H3NT protease activity of recombinant proteases” value in the data set on recombinant H3 (rH3) is recorded as “possessed H3NT protease activity”.
